The subject of the test is HIV-IIIb. The test can be described thus: Antiviral assay in MT4 cells. Format: cell-based. The conditions noted are these: Human immunodeficiency virus 1, MT4, 120 h; MT-4 cells mixed with HIV-IIIb at m.o.i. 0.003; 5 days at 37° C.; CellTiter-Glo luminescence; 50% decrease in signal, a measure of HIV-1 replication. The procedure, abridged:
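Compound, tested at ten 3-fold dilutions in quadruplicate in 10% FBS medium, received MT-4 cells pre-mixed 1 hour with HIV-IIIb (m.o.i. 0.003). Protection was read as luminescent cell viability (CellTiter-Glo) after 5 days' culture at 37° C.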

Among the data in patent US12077537B2 (Gilead Sciences, Inc., priority 2020, dated 2024) are EC50 values, retold here.

In the case of `NC(=O)c1cc(-c2cc3scnc3nc2[C@H](Cc2cc(F)cc(F)c2)NC(=O)Cn2nc(C(F)F)c3c2C(F)(F)CCC3(F)F)ccc1F` [Compound 15-2, (S)-5-(5-(1-(2-(3-(difluoromethyl)-4,4,7,7-tetrafluoro-4,5,6,7-tetrahydro-1H-indazol-1-yl)acetamido)-2-(3,5-difluorophenyl)ethyl)thiazolo[4,5-b]pyridin-6-yl)-2-fluorobenzamide], the EC50 amounted to 326 nM.

Take `N#Cc1cc(-c2cc3sc(N4CCOCC4)nc3nc2[C@H](Cc2cc(F)cc(F)c2)NC(=O)Cn2nc(C(F)F)c3c2C(F)(F)CCC3(F)F)ccc1F` [Example 3K, (S)—N-(1-(6-(3-cyano-4-fluorophenyl)-2-morpholinothiazolo[4,5-b]pyridin-5-yl)-2-(3,5-difluorophenyl)ethyl)-2-(3-(difluoromethyl)-4,4,7,7-tetrafluoro-4,5,6,7-tetrahydro-1H-indazol-1-yl)acetamide]: the half-maximal effective concentration (EC50) worked out at 1800 nM.

Compound `NC(=O)c1cc(-c2cc3sc(N4CCNC(=O)C4)nc3nc2[C@H](Cc2cc(F)cc(F)c2)NC(=O)Cn2nc(C(F)(F)F)c3c2C(F)(F)[C@@H]2C[C@H]32)ccc1F` [Compound 33, 5-(5-((S)-1-(2-((3bS,4aR)-5,5-difluoro-3-(trifluoromethyl)-3b,4,4a,5-tetrahydro-1H-cyclopropa[3,4]cyclopenta[1,2-c]pyrazol-1-yl)acetamido)-2-(3,5-difluorophenyl)ethyl)-2-(3-oxopiperazin-1-yl)thiazolo[4,5-b]pyridin-6-yl)-2-fluorobenzamide] yielded a concentration giving a half-maximal response (EC50) of 88.3 nM.

In turn, `C[C@@H]1CN(c2nc3nc([C@H](Cc4cc(F)cc(F)c4)NC(=O)Cn4nc(C(F)(F)F)c5c4C(F)(F)[C@@H]4C[C@H]54)c(-c4cccc5c(NS(C)(=O)=O)nn(C)c45)cc3s2)CCN1` [Example 89, 2-((3bS,4aR)-5,5-difluoro-3-(trifluoromethyl)-3b,4,4a,5-tetrahydro-1H-cyclopropa[3,4]cyclopenta[1,2-c]pyrazol-1-yl)-N—((S)-2-(3,5-difluorophenyl)-1-(6-(1-methyl-3-(methylsulfonamido)-1H-indazol-7-yl)-2-((R)-3-methylpiperazin-1-yl)thiazolo[4,5-b]pyridin-5-yl)ethyl)acetamide] came in with a 50% effective concentration (EC50) of 11.3 nM.

Consider `CC(C)(C)OC(=O)N1CCC[C@H]1c1nc(-c2ccc(C#Cc3nc4nc([C@H](Cc5cc(F)cc(F)c5)NC(=O)Cn5nc(C(F)F)c6c5C(F)(F)CCC6(F)F)c(-c5ccc(F)c(C(N)=O)c5)cc4s3)cc2)c[nH]1` [Compound 137, tert-butyl (S)-2-(4-(4-((6-(3-carbamoyl-4-fluorophenyl)-5-((S)-1-(2-(3-(difluoromethyl)-4,4,7,7-tetrafluoro-4,5,6,7-tetrahydro-1H-indazol-1-yl)acetamido)-2-(3,5-difluorophenyl)ethyl)thiazolo[4,5-b]pyridin-2-yl)ethynyl)phenyl)-1H-imidazol-2-yl)pyrrolidine-1-carboxylate], for which the EC50 stood at 409 nM.

In turn, `Cn1nc(NS(C)(=O)=O)c2cccc(-c3cc4sc(NCC(C)(C)O)nc4nc3[C@H](Cc3cc(F)cc(F)c3)NC(=O)Cn3nc(C(F)F)c4c3C(F)(F)CCC4(F)F)c21` [Compound 56, (S)-2-(3-(difluoromethyl)-4,4,7,7-tetrafluoro-4,5,6,7-tetrahydro-1H-indazol-1-yl)-N-(2-(3,5-difluorophenyl)-1-(2-((2-hydroxy-2-methylpropyl)amino)-6-(1-methyl-3-(methylsulfonamido)-1H-indazol-7-yl)thiazolo[4,5-b]pyridin-5-yl)ethyl)acetamide] came in with an EC50 of 55.8 nM.

`Cn1nc(NS(C)(=O)=O)c2cccc(-c3cc4[nH]c(-c5ccccc5)cc4nc3[C@H](Cc3cc(F)cc(F)c3)NC(=O)Cn3nc(C(F)(F)F)c4c3C(F)(F)[C@@H]3C[C@H]43)c21` [Example 121, 2-((3bS,4aR)-5,5-difluoro-3-(trifluoromethyl)-3b,4,4a,5-tetrahydro-1H-cyclopropa[3,4]cyclopenta[1,2-c]pyrazol-1-yl)-N—((S)-2-(3,5-difluorophenyl)-1-(6-(1-methyl-3-(methylsulfonamido)-1H-indazol-7-yl)-2-phenyl-1H-pyrrolo[3,2-b]pyridin-5-yl)ethyl)acetamide] displayed an EC50 of 79.6 nM.

With `Cc1[nH]c2ccccc2c1CC(=O)N[C@@H](Cc1ccccc1)c1nc2ccccc2n1-c1ccccc1` [Compound 2, (S)-2-(2-methyl-1H-indol-3-yl)-N-(2-phenyl-1-(1-phenyl-1H-benzo[d]imidazol-2-yl)ethyl)acetamide], the EC50 came to 29700 nM.

The compound `NC(=O)c1cc(-c2cc3sc(NC4CCOC4)nc3nc2[C@H](Cc2cc(F)cc(F)c2)NC(=O)Cn2nc(C(F)F)c3c2C(F)(F)CCC3(F)F)ccc1F` (stereo partly drawn) [Compound 9, 5-(5-((S)-1-(2-(3-(difluoromethyl)-4,4,7,7-tetrafluoro-4,5,6,7-tetrahydro-1H-indazol-1-yl)acetamido)-2-(3,5-difluorophenyl)ethyl)-2-((tetrahydrofuran-3-yl)amino)thiazolo[4,5-b]pyridin-6-yl)-2-fluorobenzamide] showed an EC50 of 266 nM.

In the case of `Cn1nc(NS(C)(=O)=O)c2cccc(-c3cc4sc(N5CCC6(CC5)CNC(=O)O6)nc4nc3[C@H](Cc3cc(F)cc(F)c3)NC(=O)Cn3nc(C(F)(F)F)c4c3C(F)(F)[C@@H]3C[C@H]43)c21` [Example 80, 2-((3bS,4aR)-5,5-difluoro-3-(trifluoromethyl)-3b,4,4a,5-tetrahydro-1H-cyclopropa[3,4]cyclopenta[1,2-c]pyrazol-1-yl)-N—((S)-2-(3,5-difluorophenyl)-1-(6-(1-methyl-3-(methylsulfonamido)-1H-indazol-7-yl)-2-(2-oxo-1-oxa-3,8-diazaspiro[4.5]decan-8-yl)thiazolo[4,5-b]pyridin-5-yl)ethyl)acetamide], the EC50 came out at 24.8 nM.

Take `Cn1nc(NS(C)(=O)=O)c2cccc(-c3cc4sc(N5CCC6(CC5)CNC6)nc4nc3[C@H](Cc3cc(F)cc(F)c3)NC(=O)Cn3nc(C(F)(F)F)c4c3C(F)(F)[C@@H]3C[C@H]43)c21` [Example 90, 2-((3bS,4aR)-5,5-difluoro-3-(trifluoromethyl)-3b,4,4a,5-tetrahydro-1H-cyclopropa[3,4]cyclopenta[1,2-c]pyrazol-1-yl)-N—((S)-2-(3,5-difluorophenyl)-1-(6-(1-methyl-3-(methylsulfonamido)-1H-indazol-7-yl)-2-(2,7-diazaspiro[3.5]nonan-7-yl)thiazolo[4,5-b]pyridin-5-yl)ethyl)acetamide]: the concentration giving a half-maximal response (EC50) is 431 nM.

Take `Cc1nc2nc(C(Cc3cc(F)cc(F)c3)NC(=O)Cn3nc(C(F)(F)F)c4c3C(F)(F)[C@@H]3C[C@H]43)c(-c3cccc4c(NS(C)(=O)=O)nn(C)c34)cc2s1` (stereo partly drawn) [Compound 130, 2-((3bS,4aR)-5,5-difluoro-3-(trifluoromethyl)-3b,4,4a,5-tetrahydro-1H-cyclopropa[3,4]cyclopenta[1,2-c]pyrazol-1-yl)-N-(2-(3,5-difluorophenyl)-1-(2-methyl-6-(1-methyl-3-(methylsulfonamido)-1H-indazol-7-yl)thiazolo[4,5-b]pyridin-5-yl)ethyl)acetamide]: the EC50 came out at 6 nM.

Compound `Cn1nc(NS(C)(=O)=O)c2c(Cl)ccc(-c3cc4sc(O)nc4nc3[C@H](Cc3cc(F)cc(F)c3)NC(=O)Cn3nc(C(F)F)c4c3C(F)(F)[C@@H]3C[C@H]43)c21` [Example 112, N—((S)-1-(6-(4-chloro-1-methyl-3-(methylsulfonamido)-1H-indazol-7-yl)-2-hydroxythiazolo[4,5-b]pyridin-5-yl)-2-(3,5-difluorophenyl)ethyl)-2-((3bS,4aR)-3-(difluoromethyl)-5,5-difluoro-3b,4,4a,5-tetrahydro-1H-cyclopropa[3,4]cyclopenta[1,2-c]pyrazol-1-yl)acetamide] displayed a 50% effective concentration (EC50) of 3.8 nM.

Take `Cn1nc(NS(C)(=O)=O)c2cccc(-c3cc4sc(NC5CNC(=O)C5)nc4nc3C(Cc3cc(F)cc(F)c3)NC(=O)Cn3nc(C(F)(F)F)c4c3C(F)(F)[C@@H]3C[C@H]43)c21` (stereo partly drawn) [Example 128, 2-((3bS,4aR)-5,5-difluoro-3-(trifluoromethyl)-3b,4,4a,5-tetrahydro-1H-cyclopropa[3,4]cyclopenta[1,2-c]pyrazol-1-yl)-N-(2-(3,5-difluorophenyl)-1-(6-(1-methyl-3-(methylsulfonamido)-1H-indazol-7-yl)-2-((5-oxopyrrolidin-3-yl)amino)thiazolo[4,5-b]pyridin-5-yl)ethyl)acetamide]: it took 342 nM to reach a half-maximal effect (EC50).

Consider `Cn1nc(N)c2cccc(-c3cc4sc(NCC(C)(C)O)nc4nc3[C@H](Cc3cc(F)cc(F)c3)NC(=O)Cn3nc(C(F)F)c4c3C(F)(F)CCC4(F)F)c21` [Compound 60, (S)—N-(1-(6-(3-amino-1-methyl-1H-indazol-7-yl)-2-((2-hydroxy-2-methylpropyl)amino)thiazolo[4,5-b]pyridin-5-yl)-2-(3,5-difluorophenyl)ethyl)-2-(3-(difluoromethyl)-4,4,7,7-tetrafluoro-4,5,6,7-tetrahydro-1H-indazol-1-yl)acetamide], for which a half-maximal effect (EC50) was put at 60 nM.

Turning to `NC(=O)c1cc(-c2cc3sc(N4CCOCC4)nc3nc2[C@H](Cc2cc(F)cc(F)c2)NC(=O)Cn2nc(C(F)F)c3c2C(F)(F)CCC3(F)F)ccc1F` [Compound 3, (S)-5-(5-(1-(2-(3-(difluoromethyl)-4,4,7,7-tetrafluoro-4,5,6,7-tetrahydro-1H-indazol-1-yl)acetamido)-2-(3,5-difluorophenyl)ethyl)-2-morpholinothiazolo[4,5-b]pyridin-6-yl)-2-fluorobenzamide], the EC50 was determined as 160 nM.

In turn, `CC(C)(O)CNc1nc2nc([C@H](Cc3cc(F)cc(F)c3)NC(=O)Cn3nc(C(F)F)c4c3C(F)(F)CCC4(F)F)c(-c3ccc(F)c(C(N)=O)c3)cc2s1` [Compound 6, (S)-5-(5-(1-(2-(3-(difluoromethyl)-4,4,7,7-tetrafluoro-4,5,6,7-tetrahydro-1H-indazol-1-yl)acetamido)-2-(3,5-difluorophenyl)ethyl)-2-((2-hydroxy-2-methylpropyl)amino)thiazolo[4,5-b]pyridin-6-yl)-2-fluorobenzamide] came in with a concentration for a half-maximal effect (EC50) of 98.6 nM.
